Test results: patent publication US6682892B2, “Method for treating herpes viruses” (priority 2000, dated 2004)

Assays:
HSV-1 DJL-M1 (V823A) = experiment: Plaque reduction assay, 4-oxo-DHQ resistant HSV-1 DJL-M1; assay type: cell-based; conditions: Table 2, mutant V823A
Procedure: Antiviral activity of compounds against herpesviruses such as HSV-1, HSV-2, or HCMV can be measured using plaque reduction assays. 0.1 ml of media containing approximately 50 PFU of virus is added to each well of a 24-well cell culture dish containing a confluent monolayer of cells (Vero cells for HSV-1 and HSV-2, HFF cells for HCMV). Compounds are dissolved in 100% DMSO and diluted in 100% DMSO as 200× stocks of the desired final drug concentration. Typically 5-6 two-fold dilutions are prepared for each compound. Dilutions of compounds are then added to media containing 0.8% CMC resulting in a final 1× drug concentration. After the virus-infected cells have incubated for 1 h at 37° C., the virus innoculum is removed and 1 ml of media containing 0.8% CMC and the various concentrations of compound is added to each well of the dish. The dish is incubated at 37° C. for approximately 2-3 days (HSV-1 and HSV-2) or 6-9 days (HCMV) to allow sufficient growth of virus to form plaques in the cell monolayer. Plaques can be observed and counted microscopically or by staining the cells with 0.1% crystal violet in 20% ethanol. […] The IC50 values are calculated by plotting the per cent inhibition vs. concentration of compound using EXCEL software for linear regression. […]

HSV-1 F = experiment: Plaque reduction assay, HSV-1 F; assay type: cell-based; conditions: Table 1, plaque reduction, Vero cells
Procedure: (§1) Antiviral activity of compounds against herpesviruses such as HSV-1, HSV-2, or HCMV can be measured using plaque reduction assays. 0.1 ml of media containing approximately 50 PFU of virus is added to each well of a 24-well cell culture dish containing a confluent monolayer of cells (Vero cells for HSV-1 and HSV-2, HFF cells for HCMV). Compounds are dissolved in 100% DMSO and diluted in 100% DMSO as 200× stocks of the desired final drug concentration. Typically 5-6 two-fold dilutions are prepared for each compound. Dilutions of compounds are then added to media containing 0.8% CMC resulting in a final 1× drug concentration. After the virus-infected cells have incubated for 1 h at 37° C., the virus innoculum is removed and 1 ml of media containing 0.8% CMC and the various concentrations of compound is added to each well of the dish. The dish is incubated at 37° C. for approximately 2-3 days (HSV-1 and HSV-2) or 6-9 days (HCMV) to allow sufficient growth of virus to form plaques in the cell monolayer. Plaques can be observed and counted microscopically or by staining the cells with 0.1% crystal violet in 20% ethanol. […] Antiviral activity of a compound is expressed as the concentration of compound predicted to reduce the number of plaques in a well by 50% (IC50). The IC50 values are calculated by plotting the per cent inhibition vs. concentration of compound using EXCEL software for linear regression.
A panel of viruses consisting of four strains of HSV-1 (KOS, F, DJL, Patton) and three strains of HSV-2 (MS, 35D, 186) are tested in a plaque reduction assay against four different 4-oxo-DHQ compounds (#1, 2, 4, 5 as shown in FIG. 1), and one 4-oxo-DHTP compound (#3 as shown in FIG. 1) and against Acyclovir. The six drugs inhibited replication of the seven virus strains with IC50 values ranging from 2-10 μM (Table 1). In order to select for 4-oxo-DHQ resistant mutants, HSV-1 strains KOS, F, and DJL along with HSV-2 strains 186 and MS are serially passaged in the presence of 20 uM compound 1. Following the seventh passage, 4-oxo-DHQ resistant virus from each strain are plaque purified three times and high-titer stocks are made.

[1] = target: T1, HCMV V823A/V824L polymerase (Human cytomegalovirus, UniProt P08546, V823A/V824L); experiment: In vitro polymerase assay, mutant HCMV polymerase V823A/V824L; assay type: biochemical
T1 construct: made in house
T1 sequence (P08546 1-1242 V823A/V824L): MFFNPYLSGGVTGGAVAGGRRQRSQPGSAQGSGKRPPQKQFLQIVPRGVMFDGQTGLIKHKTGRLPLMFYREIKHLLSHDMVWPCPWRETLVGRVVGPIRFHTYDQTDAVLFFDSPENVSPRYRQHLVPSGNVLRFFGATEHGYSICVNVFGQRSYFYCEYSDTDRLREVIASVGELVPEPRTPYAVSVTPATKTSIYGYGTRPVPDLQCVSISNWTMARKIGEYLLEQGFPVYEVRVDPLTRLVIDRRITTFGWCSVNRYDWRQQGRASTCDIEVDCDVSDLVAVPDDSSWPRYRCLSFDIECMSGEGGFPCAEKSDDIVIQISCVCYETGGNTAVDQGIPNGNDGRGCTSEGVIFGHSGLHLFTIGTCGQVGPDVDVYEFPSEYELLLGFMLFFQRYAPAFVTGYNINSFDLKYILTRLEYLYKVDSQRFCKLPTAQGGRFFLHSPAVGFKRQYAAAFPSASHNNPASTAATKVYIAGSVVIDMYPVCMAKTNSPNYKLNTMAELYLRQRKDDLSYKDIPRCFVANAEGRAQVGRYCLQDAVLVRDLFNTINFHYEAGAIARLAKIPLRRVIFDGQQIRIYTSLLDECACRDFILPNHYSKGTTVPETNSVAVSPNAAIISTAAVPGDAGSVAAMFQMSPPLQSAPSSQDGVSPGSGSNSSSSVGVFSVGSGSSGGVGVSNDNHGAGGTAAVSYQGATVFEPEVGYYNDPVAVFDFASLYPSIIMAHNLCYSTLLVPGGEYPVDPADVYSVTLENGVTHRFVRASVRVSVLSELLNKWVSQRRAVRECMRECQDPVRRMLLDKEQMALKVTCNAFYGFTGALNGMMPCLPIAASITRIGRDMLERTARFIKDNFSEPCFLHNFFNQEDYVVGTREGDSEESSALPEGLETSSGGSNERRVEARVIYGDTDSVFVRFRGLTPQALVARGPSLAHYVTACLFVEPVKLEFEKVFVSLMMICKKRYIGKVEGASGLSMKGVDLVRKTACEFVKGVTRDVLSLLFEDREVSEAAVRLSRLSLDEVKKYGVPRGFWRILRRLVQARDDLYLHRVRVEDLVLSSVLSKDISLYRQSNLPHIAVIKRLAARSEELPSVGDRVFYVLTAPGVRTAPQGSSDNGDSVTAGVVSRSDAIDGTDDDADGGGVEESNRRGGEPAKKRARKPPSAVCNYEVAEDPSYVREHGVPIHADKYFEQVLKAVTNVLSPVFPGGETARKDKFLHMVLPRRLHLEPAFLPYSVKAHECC
Procedure: (§2) In order to select for a 4-oxo-DHQ HCMV resistant mutant, virus (strain AD169) is serially passaged in the presence of 20 uM a 4-oxo-DHQ. […] In order to determine if both valines need to be changed in order to confer resistance to the 4-oxo-DHQ's, in vitro polymerase assays are done using mutant HCMV polymerases containing either V823A or V823A plus V824L (Table 3).

HCMV AD169 = experiment: Plaque reduction assay, HCMV AD169; assay type: cell-based; conditions: Table 4, plaque reduction, wild type; read-out: HCMV AD169 IC50
Procedure: as §1

HCMV (wild) polymerase = HCMV (wild) polymerase (Human cytomegalovirus, UniProt P08546); experiment: In vitro polymerase assay, wild HCMV polymerase; assay type: biochemical; conditions: Table 3
Sequence of HCMV (wild) polymerase (P08546 whole entry): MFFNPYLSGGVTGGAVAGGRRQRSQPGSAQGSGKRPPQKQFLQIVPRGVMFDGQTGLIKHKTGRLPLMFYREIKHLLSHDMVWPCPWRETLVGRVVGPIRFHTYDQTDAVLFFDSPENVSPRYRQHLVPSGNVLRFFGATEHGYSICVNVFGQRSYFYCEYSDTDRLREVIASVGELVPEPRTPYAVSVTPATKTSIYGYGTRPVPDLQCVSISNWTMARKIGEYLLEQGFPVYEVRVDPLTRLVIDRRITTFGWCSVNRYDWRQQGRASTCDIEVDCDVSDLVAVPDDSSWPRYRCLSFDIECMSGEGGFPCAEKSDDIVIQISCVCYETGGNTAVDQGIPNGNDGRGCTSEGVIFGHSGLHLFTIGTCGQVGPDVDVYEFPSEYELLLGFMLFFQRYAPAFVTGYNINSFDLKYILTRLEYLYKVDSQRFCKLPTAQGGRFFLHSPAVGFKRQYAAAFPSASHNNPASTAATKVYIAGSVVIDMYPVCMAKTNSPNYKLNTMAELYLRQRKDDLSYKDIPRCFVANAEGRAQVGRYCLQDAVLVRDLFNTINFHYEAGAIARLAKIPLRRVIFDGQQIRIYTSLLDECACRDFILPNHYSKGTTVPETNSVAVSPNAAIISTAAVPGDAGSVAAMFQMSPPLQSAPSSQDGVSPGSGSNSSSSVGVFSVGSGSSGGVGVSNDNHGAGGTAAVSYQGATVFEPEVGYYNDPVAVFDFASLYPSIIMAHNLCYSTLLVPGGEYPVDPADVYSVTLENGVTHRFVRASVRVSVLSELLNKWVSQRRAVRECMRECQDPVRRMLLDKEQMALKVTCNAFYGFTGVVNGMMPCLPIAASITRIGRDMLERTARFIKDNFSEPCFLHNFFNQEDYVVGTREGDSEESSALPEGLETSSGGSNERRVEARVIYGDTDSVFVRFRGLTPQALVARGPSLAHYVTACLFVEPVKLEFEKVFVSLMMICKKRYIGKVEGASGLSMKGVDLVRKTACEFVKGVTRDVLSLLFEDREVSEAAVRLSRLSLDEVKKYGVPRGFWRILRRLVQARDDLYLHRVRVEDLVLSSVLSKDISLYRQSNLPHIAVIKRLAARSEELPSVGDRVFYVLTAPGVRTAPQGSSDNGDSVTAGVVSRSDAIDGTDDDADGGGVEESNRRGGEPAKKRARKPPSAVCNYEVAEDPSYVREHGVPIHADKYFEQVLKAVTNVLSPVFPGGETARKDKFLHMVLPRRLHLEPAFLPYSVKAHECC
Procedure: as §2

Cn1cc(C(=O)NCc2ccc(Cl)cc2)c(=O)c2cc(/C=C\CO)cc(F)c21 [Compound 1]
IC50 (HSV-1 DJL-M1 (V823A)): > 20 µM | IC50 (HSV-1 F): 2.5 µM | IC50 ([1]; Table 3): 42.9 µM | increase in resistance, HCMV V823A/V824L polymerase ([1]; relative to wild type): *Mutation of the amino acid from valine to alanine and amino acid 824 from valine to leucine results in an 9-fold increase in resistance, relative to wild type. | IC50 (HCMV AD169): 0.7 µM | IC50 (HCMV (wild) polymerase): 4.6 µM
